Experimental data: ChEMBL document CHEMBL5233248, “Resveratrol - A comprehensive review of recent advances in anticancer drug design and development” (Eur J Med Chem, 2020)
pIC50: −log10 of the molar value.

Columns and labels:
[1] = system: B16-F10; experiment: Anti cancer activity against mouse B16-F10 cells assessed as cell growth inhibition incubated for 40 hrs by Almar Blue stained fluorescence-based assay; assay type: functional; settings: B16-F10, 40 h
[2] = system: HT-29; experiment: Anticancer activity against human HT-29 cells assessed as cell growth inhibition incubated for 3 days by MTT assay; assay type: functional, cell-based; settings: HT-29, 72 h
[3] = system: MCF7; experiment: Anticancer activity against human MCF7 cells assessed as cell growth inhibition incubated for 3 days by MTT assay; assay type: functional, cell-based; settings: MCF7, 72 h
[4] = system: HEK293; experiment: Anticancer activity against human HEK293 cells assessed as cell growth inhibition incubated for 3 days by MTT assay; assay type: functional, cell-based; settings: HEK293, 72 h
[5] = system: HCT-116; experiment: Anticancer activity against human HCT-116 cells assessed as cell growth inhibition incubated for 5 days by SRB assay; assay type: functional, cell-based; settings: HCT-116, 120 h
[6] = system: PANC-1; experiment: Anticancer activity against human PANC-1 cells assessed as cell growth inhibition incubated for 48 hrs by SRB assay; assay type: functional; settings: Homo sapiens, PANC-1, 48 h
[7] = Anticancer activity against human AZ-AHR cells assessed as cell growth inhibition incubate for 24 hrs by MTT assay; assay type: functional, cell-based
[8] = system: HCT-116; experiment: Anticancer activity against human HCT-116 cells assessed as cell growth inhibition; assay type: functional, cell-based
[9] = system: HeLa; experiment: Anticancer activity against human HeLa cells assessed as cell growth inhibition measured after 72 hrs by MTT assay; assay type: functional, cell-based; settings: Homo sapiens, HeLa, 72 h; read-out: IC50
[10] = system: A549; experiment: Anticancer activity against human A549 cells assessed as cell growth inhibition measured after 72 hrs by MTT assay; assay type: functional, cell-based; settings: Homo sapiens, A549, 72 h
[11] = Anticancer activity against Lung adenocarcinoma cell line assessed as cell growth inhibition measured after 72 hrs by MTT assay; assay type: functional, cell-based; settings: Lung adenocarcinoma cell line, 72 h
[12] = system: MDA-MB-231; experiment: Anticancer activity against human MDA-MB-231 cells assessed as reduction in cell viability measured after 48 hrs at 150 uM by MTT assay relative to control; assay type: functional
[13] = system: HT-29; experiment: Anticancer activity against human HT-29 cells assessed as cell growth inhibition incubated for 24 hrs by MTT assay; assay type: functional, cell-based; settings: Homo sapiens, HT-29, 24 h
[14] = system: HepG2; experiment: Anticancer activity against human HepG2 cells assessed as cell growth inhibition incubated for 24 hrs by MTT assay; assay type: functional, cell-based; settings: HepG2, 24 h
[15] = system: SK-BR-3; experiment: Anticancer activity against human SK-BR-3 cells assessed as cell growth inhibition incubated for 24 hrs by MTT assay; assay type: functional, cell-based; settings: SK-BR-3, 24 h
[16] = target: T1, Aromatase (Homo sapiens, UniProt P11511)
T1 sequence (P11511 whole entry): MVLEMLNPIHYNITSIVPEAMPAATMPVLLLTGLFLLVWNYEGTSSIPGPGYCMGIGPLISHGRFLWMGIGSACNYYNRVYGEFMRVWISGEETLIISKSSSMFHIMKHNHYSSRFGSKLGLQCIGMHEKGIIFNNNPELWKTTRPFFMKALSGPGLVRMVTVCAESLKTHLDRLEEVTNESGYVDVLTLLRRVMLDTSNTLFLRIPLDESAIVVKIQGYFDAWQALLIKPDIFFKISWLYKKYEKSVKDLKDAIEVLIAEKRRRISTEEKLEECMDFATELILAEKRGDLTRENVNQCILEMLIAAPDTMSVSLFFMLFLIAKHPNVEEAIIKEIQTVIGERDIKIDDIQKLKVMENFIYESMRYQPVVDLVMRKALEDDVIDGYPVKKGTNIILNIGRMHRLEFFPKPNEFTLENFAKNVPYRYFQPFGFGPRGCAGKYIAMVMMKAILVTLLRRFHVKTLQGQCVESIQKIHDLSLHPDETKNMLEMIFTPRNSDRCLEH
Description: Inhibition of human Aromatase

[17] = target: CYP1A (Homo sapiens, UniProt P04798+P05177); experiment: Inhibtion of CYP1A (unknown origin); assay type: ADME, protein assay
[18] = system: Ishikawa; experiment: cells; settings: Homo sapiens
Description: Anti-tumor activity against human ishikawa cells assessed as anti-estrogenic potential

[19] = system: B16-F10; experiment: Anti cancer activity against mouse B16-F10 cells assessed as cell growth inhibition incubated for 40 hrs by Almar Blue stained fluorescence-based assay relative to control; assay type: functional
[20] = system: ASPC1; experiment: Anticancer activity against human ASPC1 cells assessed as cell growth inhibition incubated for 72 hrs by MTT assay; assay type: functional, cell-based; settings: ASPC1, 72 h
[21] = system: BXPC-3; experiment: Anticancer activity against human BXPC-3 cells assessed as cell growth inhibition incubated for 72 hrs by MTT assay; assay type: functional, cell-based; settings: BXPC-3, 72 h
[22] = system: Capan-2; experiment: Anticancer activity against human Capan-2 cells assessed as cell growth inhibition incubated for 72 hrs by MTT assay; assay type: functional, cell-based; settings: Capan-2, 72 h
[23] = system: MCF7; experiment: Anticancer activity against human MCF7 cells assessed as cell growth inhibition incubated for 48 hrs by MTS assay; assay type: functional, cell-based; settings: MCF7, 48 h
[24] = Cytotoxicity activity against human CCD-1059Sk cells assessed as cell growth inhibition incubated for 48 hrs by MTS assay; assay type: toxicity, cell-based
[25] = in vitro; settings: human, CCD-1059Sk cells and MCF7 cells
Description: Selectivity index, ratio of IC50 for cytotoxicity against CCD-1059Sk cells to IC50 for antiproliferative activity against MCF7 cells

[26] = system: HepG2; experiment: Anticancer activity against human HepG2 cells assessed as cell growth inhibition incubated for 3 days by MTT assay; assay type: functional, cell-based; settings: HepG2, 72 h

SMILES: COc1ccc(/C=C\c2ccc(OC)c(OC)c2)cc1 [7Z-3,4,4'-TRIMETHOXYSTILBENE]
- pIC50 [1]: 6.00

SMILES: O=S(=O)(O)Oc1cc(O)cc(/C=C/c2ccc(O)cc2)c1
- pIC50 [2]: 3.94
- pIC50 [3]: 4.77
- pIC50 [4]: < 4.00

SMILES: Oc1ccccc1/C=N/c1ccccc1O
- pIC50 [5]: 6.22

SMILES: COc1cc(/C=C/c2ccc(OC(=O)CSc3nnc(-c4ccncc4)o3)cc2)cc(OC)c1
- GI50 [6]: 0.064 µM

SMILES: COc1cc(/C=C/c2ccc(OC(=O)CSc3nnc(-c4c(F)cccc4F)o3)cc2)cc(OC)c1
- GI50 [6]: 0.064 µM

SMILES: Oc1cc(O)cc(/C=C/c2ccc(O)c(O)c2)c1 [PICEATANNOL]
- pIC50 [7]: 5.35
- pIC50 [8]: 5.30

SMILES: O=S(=O)(Oc1ccc(/C=C/c2cc(O)cc(OS(=O)(=O)c3ccccc3)c2)cc1)c1ccccc1
- pIC50 [9]: 5.19
- pIC50 [10]: 5.31
- pIC50 [11]: 5.26

SMILES: CC(C)C(=O)Oc1ccc(/C=C/c2cc(OC(=O)C(C)C)cc(OC(=O)C(C)C)c2)cc1
- pIC50 [9]: 5.29
- pIC50 [10]: 5.29
- pIC50 [11]: 5.29

SMILES: Oc1ccc(/C=C\c2cc(O)cc(O)c2)cc1 [CIS-RESVERATROL]
- pIC50 [7]: 4.60
- pIC50 [8]: 4.60

SMILES: OC[C@H]1O[C@@H](Oc2cc(/C=C/c3ccc(O)cc3)cc(O[C@@H]3O[C@H](CO)[C@@H](O)[C@H](O)[C@H]3O)c2)[C@H](O)[C@@H](O)[C@@H]1O
- pIC50 [2]: 4.62
- pIC50 [3]: 4.14
- pIC50 [4]: < 4.00

SMILES: CC(C)(C)C(=O)Oc1ccc(/C=C/c2cc(O)cc(O)c2)cc1
- Activity [12]: 7.7%

SMILES: COc1cc(/C=C/c2ccc(OC(=O)CSc3nnc(-c4ccccc4F)o3)cc2)cc(OC)c1
- GI50 [6]: 0.064 µM

SMILES: COc1ccc(-c2nnc(SCC(=O)Nc3ccc(/C=C/c4cc(OC)cc(OC)c4)cc3)o2)cc1
- GI50 [6]: 0.064 µM

SMILES: COc1ccc(/C=C/c2cc(OC)cc(OC)c2)cc1 [TRISMETHOXYRESVERATROL]
- pIC50 [13]: 4.85
- pIC50 [14]: < 4.00
- pIC50 [15]: 3.95
- pIC50 [16]: 4.87
- pIC50 [17]: 8.52
- pIC50 [8]: 5.96
- pIC50 [18]: 4.90

SMILES: COc1cc(/C=C/c2ccc(OC(=O)CSc3nnc(-c4ccc(C(F)(F)F)cc4)o3)cc2)cc(OC)c1
- GI50 [6]: 0.064 µM

SMILES: COc1cc(/C=C\c2ccc(OC)c(OC)c2)cc(OC)c1 [(Z)-3,4,3',5'-TETRAMETHOXYSTILBENE]
- pIC50 [1]: 6.00
- inhibition (INH) [19]: 80%

SMILES: O=S(=O)(O)Oc1ccc(/C=C/c2cc(O)cc(OS(=O)(=O)O)c2)cc1
- pIC50 [2]: 4.25
- pIC50 [3]: 4.59
- pIC50 [4]: < 4.00

SMILES: Nc1ccc(/C=C/c2ccc(O)cc2)cc1
- pIC50 [20]: 5.49
- pIC50 [21]: 4.65
- pIC50 [22]: 5.52

SMILES: COc1cc(/C=N/NC(=O)/C=C/c2ccc(O)c(OC)c2)cc(OC)c1
- pIC50 [23]: 4.37
- IC50 at 48 h [24]: 130 µM
- selectivity ratio [25]: 6.81

SMILES: CCOc1cc(/C=C/c2ccc(O)c(O)c2)cc(OCC)c1
- pIC50 [26]: 4.17

SMILES: CC(C)CC(=O)Oc1ccc(/C=C/c2cc(OC(=O)CC(C)C)cc(OC(=O)CC(C)C)c2)cc1
- pIC50 [9]: 5.31
- pIC50 [10]: 5.31
- pIC50 [11]: 5.31

SMILES: COc1cc(/C=C/c2ccc(O[C@@H]3O[C@H](CO)[C@@H](O)[C@H](O)[C@H]3O)cc2)cc(O[C@@H]2O[C@H](CO)[C@@H](O)[C@H](O)[C@H]2O)c1
- pIC50 [2]: 4.35
- pIC50 [3]: 4.11
- pIC50 [4]: < 4.00

SMILES: COc1cc(/C=C/c2ccc(NC(=O)CSc3nnc(-c4cccc(C(F)(F)F)c4)o3)cc2)cc(OC)c1
- GI50 [6]: 0.064 µM

SMILES: COc1ccc(/C=C\c2cc(OC)c(OC)c(OC)c2)c(OC)c1
- pIC50 [1]: 6.00

SMILES: COc1cc(/C=C/c2ccc(NC(=O)CSc3nnc(-c4c(F)cccc4F)o3)cc2)cc(OC)c1
- GI50 [6]: 0.064 µM
